Where two headings read alike, the source gives them in different places.
Tests used:
[1] = test system: promastigote stage of L. donovani; assay: Antileishmanial Alamar blue fluorometric assay; format: cell-based; conditions: promastigotes
Protocol: (§1) The compounds described herein were also evaluated for parasitic activity against Plasmodium falciparum and Leismania donovani. P. falciparum and L. donovani are the causative parasites of malaria and leishmaniasis, two human diseases which constitute a serious threat to public health in tropical and sub-tropical countries. Antimalarial activity was evaluated in vitro using chloroquine-sensitive (D6, Sierra Leone) and chloroquine-resistant (W2, Indochina) strains of P. falciparum. Antileishmanial activity was evaluated in vitro against the promastigote stage of L. donovani.
(§2) Plasmodium growth inhibition was determined by a parasite lactate dehydrogenase assay using Malstat reagent. Inhibition of viability of the promastigote stage of L. donovani was determined using standard Alamar blue assay, modified to a fluorometric assay.
as §1, with “Macrocyclic histone deacetylase inhibitors” for “The compounds described herein”, “were” for “were also”
as §2

HDAC6 = HDAC6 (Homo sapiens (Human), UniProt Q9UBN7); assay: Fluor de Lys HDAC6 inhibition; format: biochemical; conditions: for IC50: Table 5, read-out: HDAC 6; for HDAC6: Nuclear Extract Isoform Selectivity: ratio of IC50 HDAC6 to nuclear extract
Text: (§3) Fluor de Lys™ is a fluorescence based HDAC activity assay comprising a combination of fluorogenic Histone deAcetylase Lysyl substrate and a developer. The kit is a highly sensitive and convenient alternative to radiolabeled, acetylated histones or peptide/HPLC methods for the assay of histone deacetylases. This assay is based on the ability of HeLa nuclear extract, which is enriched in HDAC activity, to mediate the deacetylation of the acetylated lysine side chain of the Fluor de Lys substrate. The assay procedure requires two steps. First, incubation of the HeLa nuclear extract with the Fluor de Lys substrate results in substrate deacetylation and thus sensitizes it to the second step. In the second step, treatment of the deacetylated substrate with the Fluor de Lys developer produces a fluorophore. The substrate-developer reaction, under normal circumstances goes to completion in less than 1 min at 25° C. The kit used was the Fluorimetric Assay/Drug Discovery Kit—AK-500 Manual Fluorescent Assay System available from BIOMOL® International, Plymouth Meeting, Pa.
The ketolides 56 were also evaluated for their HDAC inhibitory activity against HDACs 1 and 2 from HeLa cell nuclear extract, HDAC6, and HDAC8 using the Fluor de Lys assay.

HDAC8 = HDAC8 (Homo sapiens (Human), UniProt Q9BY41); assay: Fluor de Lys HDAC8 inhibition; format: biochemical; conditions: for IC50: read-out: HDAC 8; for HDAC8: Nuclear Extract Isoform Selectivity: ratio of IC50 HDAC8 to nuclear extract
prostate (DU-145) = assay: Cell viability, MTS colorimetric assay; format: cell-based
Protocol: (§4) The effect of compounds 56a-e on cancer cell lines: prostate (DU-145), lung (A549), and breast cancer (MCF-7) and a non-transformed cell, human lung fibroblast cell (Hs1.Lu) were also evaluated.

breast cancer (MCF-7) = assay: Cell viability, MTS colorimetric assay; format: cell-based
Protocol: as §4

lung (A549) = assay: Cell viability, MTS colorimetric assay; format: cell-based
Protocol: as §4

[2] = test system: Plasmodium falciparum (D6 clone), chloroquine-sensitive; assay: Plasmodium growth inhibition, parasite lactate dehydrogenase assay (Malstat); format: cell-based; conditions: for Plasmodium falciparum (D6 clone) IC50: chloroquine-sensitive; for S.I. D6: selective toxicity index, Vero versus D6
Protocol: as §1, §2
as §1, with “Macrocyclic histone deacetylase inhibitors” for “The compounds described herein”, “were” for “were also”
as §2

[3] = test system: Plasmodium falciparum (W2 clone), chloroquine-resistant; assay: as above; format: cell-based; conditions: for Plasmodium falciparum (W2 clone) IC50: chloroquine-resistant; for S.I. (W2): selective toxicity index, Vero versus W2, value in brackets
Protocol: as §1, §2
as §1, with “Macrocyclic histone deacetylase inhibitors” for “The compounds described herein”, “were” for “were also”
as §2

[4] = test system: HeLa nuclear extract HDAC1/2; assay: Fluor de Lys HDAC inhibition, HeLa nuclear extract; format: biochemical, human
Text: as §3
Each IC50 value was obtained by averaging three independent experiments.

DU 145 cells = assay: Cell viability, trypan blue exclusion; format: cell-based; conditions: Homo sapiens
Text: (§5) Most importantly, the compounds we less toxic to untransformed cell-lines (lung fibroblast and HMEC).
(§6) Most importantly, these compounds are less toxic to untransformed cell-lines (lung fibroblast and HMEC) that we have studied to date.

lung fibroblasts = assay: Cell viability, trypan blue exclusion; format: cell-based; conditions: Fibroblast; untransformed cells
Text: as §5, §6

NCI-H69 = assay: Cell viability, trypan blue exclusion; format: cell-based; conditions: Homo sapiens
Text: as §5, §6

SKMES 1 = assay: Cell viability, trypan blue exclusion; format: cell-based; conditions: Homo sapiens, SK-MES-1
Text: as §5, §6

HMEC = assay: Cell viability, trypan blue exclusion; format: cell-based; conditions: Homo sapiens; untransformed cells
Text: as §5, §6

[5] = HDACs 1 and 2 from HeLa cell nuclear extract, Table 5, read-out: Nuclear Extract
[6] = average of three independent experiments, Table 4
[7] = HeLa nuclear extract, average of three independent experiments, Table 4, read-out: HDAC ½

Sequence of HDAC6 (Q9UBN7 whole entry, canonical isoform): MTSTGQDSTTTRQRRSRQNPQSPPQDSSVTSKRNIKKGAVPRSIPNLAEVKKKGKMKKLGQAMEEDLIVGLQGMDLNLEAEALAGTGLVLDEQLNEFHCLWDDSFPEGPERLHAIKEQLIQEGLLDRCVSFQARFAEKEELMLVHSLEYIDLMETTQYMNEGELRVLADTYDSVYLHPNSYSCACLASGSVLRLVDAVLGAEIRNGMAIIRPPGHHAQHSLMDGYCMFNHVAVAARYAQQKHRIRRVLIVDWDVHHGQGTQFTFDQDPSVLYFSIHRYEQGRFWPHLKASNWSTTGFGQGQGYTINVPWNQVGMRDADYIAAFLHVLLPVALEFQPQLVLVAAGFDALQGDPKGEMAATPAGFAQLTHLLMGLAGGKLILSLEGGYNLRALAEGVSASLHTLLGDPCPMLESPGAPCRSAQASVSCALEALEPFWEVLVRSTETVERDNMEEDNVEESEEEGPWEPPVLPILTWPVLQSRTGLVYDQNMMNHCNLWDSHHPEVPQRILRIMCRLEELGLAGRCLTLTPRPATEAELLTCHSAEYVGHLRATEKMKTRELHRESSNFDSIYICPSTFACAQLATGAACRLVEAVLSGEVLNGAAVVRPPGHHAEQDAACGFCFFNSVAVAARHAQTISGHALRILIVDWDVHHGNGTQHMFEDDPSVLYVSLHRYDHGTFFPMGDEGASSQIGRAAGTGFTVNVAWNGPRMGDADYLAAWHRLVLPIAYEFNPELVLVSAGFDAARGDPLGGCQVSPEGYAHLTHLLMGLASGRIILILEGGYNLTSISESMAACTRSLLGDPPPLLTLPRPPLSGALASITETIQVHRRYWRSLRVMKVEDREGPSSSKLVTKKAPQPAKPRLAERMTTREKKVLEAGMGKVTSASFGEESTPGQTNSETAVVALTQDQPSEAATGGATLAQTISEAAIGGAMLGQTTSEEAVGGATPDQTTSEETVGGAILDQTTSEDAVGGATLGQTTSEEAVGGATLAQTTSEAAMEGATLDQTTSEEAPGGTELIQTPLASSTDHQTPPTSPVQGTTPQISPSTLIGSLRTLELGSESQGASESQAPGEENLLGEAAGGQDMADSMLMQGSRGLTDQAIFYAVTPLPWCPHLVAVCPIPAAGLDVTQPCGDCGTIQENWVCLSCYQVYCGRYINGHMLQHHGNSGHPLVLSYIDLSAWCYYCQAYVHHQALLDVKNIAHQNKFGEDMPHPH
Sequence of HDAC8 (Q9BY41 whole entry, canonical isoform): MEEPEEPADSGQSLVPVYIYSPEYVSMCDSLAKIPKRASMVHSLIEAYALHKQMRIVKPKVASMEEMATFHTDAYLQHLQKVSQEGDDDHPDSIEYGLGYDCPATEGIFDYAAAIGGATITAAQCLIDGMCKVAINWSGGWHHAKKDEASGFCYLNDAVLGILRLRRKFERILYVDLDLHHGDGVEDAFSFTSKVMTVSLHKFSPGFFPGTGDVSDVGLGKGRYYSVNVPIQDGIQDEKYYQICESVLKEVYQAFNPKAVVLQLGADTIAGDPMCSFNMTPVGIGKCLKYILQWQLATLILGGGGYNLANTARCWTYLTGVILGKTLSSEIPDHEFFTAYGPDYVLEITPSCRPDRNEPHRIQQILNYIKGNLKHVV

Row | Compound | IC50 (HDAC6) [nM] | HDAC6: Nuclear Extract Isoform Selectivity (HDAC6) | IC50 (HDAC8; Table 5) [nM] | HDAC8: Nuclear Extract Isoform Selectivity (HDAC8) | EC50 (prostate (DU-145)) [nM] | EC50 (breast cancer (MCF-7)) [nM] | EC50 (lung (A549)) [nM] | Plasmodium falciparum (D6 clone) IC50 [2] [µg/mL] | S.I. D6 [2] | Plasmodium falciparum (W2 clone) IC50 [3] [µg/mL] | S.I. (W2) [3] | IC50 [4, 5] [nM] | IC50 (HDAC8; [6]) [nM] | EC50 (DU 145 cells) [nM] | EC50 (lung fibroblasts) [nM] | EC50 (NCI-H69) [nM] | EC50 (SKMES 1) [nM] | EC50 (HMEC) [nM] | IC50 [4, 7] [nM] | other results
1 | CCC1OC(=O)C(C)C(=O)C(C)C(OC2OC(C)CC(N(C)Cc3ccc(-c4cn(CCCCCCCCC(=O)NO)nn4)cc3)C2O)C(C)(OC)CC(C)C2=NCCN3C(=O)OC1(C)C3C2C (stereo not drawn) [Compound 56d, Tricyclic Ketolide-N-benzyltriazolylnonahydroxamic acid] | 1920 | 11.7 | 2860 | 17.5 | 3890 | 2560 | 2480 | 1.20 | > 4.0 | 1.30 | > 3.7 | 164 |  |  |  |  |  |  |  | Antileshmanial activity IC50 [1]: 14 µg/mL; Antileshmanial activity IC90 [1]: 32 µg/mL
2 | CC[C@H]1OC(=O)[C@H](C)[C@@H](O)[C@H](C)[C@@H](O[C@@H]2O[C@H](C)C[C@H](N(C)Cc3ccc(-c4cn(CCCCCCCC(=O)NO)nn4)cc3)[C@H]2O)[C@](C)(OC)C[C@@H](C)C(=O)[C@H](C)[C@@H](O)[C@]1(C)O [Compound 28, Descladinose-Clarithromycin-N-Phenyltriazolyloctahydroxamic acid] |  |  |  |  |  |  |  |  |  |  |  |  | 4420 | 5780 | > 10000 | 5090 | 4450 | > 10000 | 123 | 
3 | CC[C@H]1OC(=O)[C@H](C)[C@@H](O)[C@H](C)[C@@H](O[C@@H]2O[C@H](C)C[C@H](N(C)Cc3ccc(-c4cn(CCCCCCC(=O)NO)nn4)cc3)[C@H]2O)[C@](C)(OC)C[C@@H](C)C(=O)[C@H](C)[C@@H](O)[C@]1(C)O [Compound 26, Descladinose-Clarithromycin-N-phenyltriazolylheptahydroxamic acid] |  |  |  |  |  |  |  |  |  |  |  |  | 1390 | 1050 | > 10000 | 1490 | 1280 | > 10000 | 1.87 | 
4 | CCC1OC(=O)C(C)C(=O)C(C)C(OC2OC(C)CC(N(C)Cc3ccc(-c4cn(CCCCCCCC(=O)NO)nn4)cc3)C2O)C(C)(OC)CC(C)C2=NCCN3C(=O)OC1(C)C3C2C (stereo not drawn) [Compound 56c, Tricyclic Ketolide-N-benzyltriazolyloctahydroxamic acid] | 1710 | 16.4 | 1910 | 18.3 | 3700 | 1350 | 1640 | 1.20 | > 4.0 | 1.50 | > 3.2 | 104 |  |  |  |  |  |  |  | Antileshmanial activity IC50 [1]: 19 µg/mL; Antileshmanial activity IC90 [1]: 36 µg/mL
5 | CCC1OC(=O)C(C)C(=O)C(C)C(OC2OC(C)CC(N(C)Cc3ccc(-c4cn(CCCCCCCCCC(=O)NO)nn4)cc3)C2O)C(C)(OC)CC(C)C2=NCCN3C(=O)OC1(C)C3C2C (stereo not drawn) [Compound 56e, Tricyclic Ketolide-N-benzyltriazolyldecahydroxamic acid] | 3200 | 15.4 | 4560 | 21.9 | 4830 | 3680 | 2810 | 1.20 | > 4.0 | 0.84 | > 5.7 | 208 |  |  |  |  |  |  |  | Antileshmanial activity IC50 [1]: 4.8 µg/mL; Antileshmanial activity IC90 [1]: 23 µg/mL
6 | CC[C@H]1OC(=O)[C@H](C)[C@@H](O[C@H]2C[C@@](C)(OC)[C@@H](O)[C@H](C)O2)[C@H](C)[C@@H](O[C@@H]2O[C@H](C)C[C@H](N(C)Cc3ccc(-c4cn(CCCCCCCCC(=O)NO)nn4)cc3)[C@H]2O)[C@](C)(OC)C[C@@H](C)C(=O)[C@H](C)[C@@H](O)[C@]1(C)O [Compound 29, Clarithromycin-N-Phenyltriazolylnonahydroxamic acid] |  |  |  |  |  |  |  |  |  |  |  |  | 10600 | 8140 | > 10000 | 7290 | 7120 | > 10000 | 170 | 
7 | CCC1OC(=O)C(C)C(=O)C(C)C(OC2OC(C)CC(N(C)Cc3ccc(-c4cn(CCCCCCC(=O)NO)nn4)cc3)C2O)C(C)(OC)CC(C)C2=NCCN3C(=O)OC1(C)C3C2C (stereo not drawn) [Compound 56b, Tricyclic Ketolide-N-benzyltriazolylheptahydroxamic acid] | 729 | 707.5 | 545 | 528.7 | 820 | 750 | 660 | 0.14 | > 34 | 0.12 | > 39.7 | 1.03 |  |  |  |  |  |  |  | Nuclear Extract (nM) ([4]; HDACs 1 and 2 from HeLa cell nuclear extract, Table 5): single digit nanomolar
8 | CC[C@H]1OC(=O)[C@H](C)[C@@H](O)[C@H](C)[C@@H](O[C@@H]2O[C@H](C)C[C@H](N(C)Cc3ccc(-c4cn(CCCCCC(=O)NO)nn4)cc3)[C@H]2O)[C@](C)(OC)C[C@@H](C)C(=O)[C@H](C)[C@@H](O)[C@]1(C)O [Compound 24, Descladinose-Clarithromycin-N-phenyltriazolylhexahydroxamic acid] |  |  |  |  |  |  |  |  |  |  |  |  | 4750 | 3290 | > 10000 | 1920 | 1950 | > 10000 | 44.3 | 
9 | CC[C@H]1OC(=O)[C@H](C)[C@@H](O[C@H]2C[C@@](C)(OC)[C@@H](O)[C@H](C)O2)[C@H](C)[C@@H](O[C@@H]2O[C@H](C)C[C@H](N(C)Cc3ccc(-c4cn(CCCCCC(=O)NO)nn4)cc3)[C@H]2O)[C@](C)(OC)C[C@@H](C)C(=O)[C@H](C)[C@@H](O)[C@]1(C)O [Compound 23, Clarithromycin-N-phenyltriazolylhexahydroxamic acid] |  |  |  |  |  |  |  |  |  |  |  |  | 3990 | 2980 | > 10000 | 2670 | 2150 | > 10000 | 37 | 
10 | CCC1OC(=O)C(C)C(=O)C(C)C(OC2OC(C)CC(N(C)Cc3ccc(-c4cn(CCCCCC(=O)NO)nn4)cc3)C2O)C(C)(OC)CC(C)C2=NCCN3C(=O)OC1(C)C3C2C (stereo not drawn) [Compound 56a, Tricyclic Ketolide-N-benzyltriazolylhexahydroxamic acid] | 1180 | 151.9 | 796 | 102.5 | 1640 | 1260 | 1170 | 0.96 | >5.0 (no value) | 1.80 |  | 7.77 |  |  |  |  |  |  |  | 
11 | CC[C@H]1OC(=O)[C@H](C)[C@@H](O[C@H]2C[C@@](C)(OC)[C@@H](O)[C@H](C)O2)[C@H](C)[C@@H](O[C@@H]2O[C@H](C)C[C@H](N(C)Cc3ccc(-c4cn(CCCCCCCC(=O)NO)nn4)cc3)[C@H]2O)[C@](C)(OC)C[C@@H](C)C(=O)[C@H](C)[C@@H](O)[C@]1(C)O [Compound 27, Clarithromycin-N-Phenyltriazolyloctahydroxamic acid] |  |  |  |  |  |  |  |  |  |  |  |  | 5880 | 6970 | > 10000 | 5670 | 4890 | > 10000 | 55.6 | 

Reference: patent US8871728B2, “Non-peptide macrocyclic histone deacetylese (HDAC) inhibitors and methods of making and using thereof” (Georgia Tech Research Corporation, priority 2007, dated 2014)
